Data as given in patent US20210205404A1, “PHARMACEUTICAL COMPOSITION OF KOR RECEPTOR AGONIST” (JIANGSU HENGRUI MEDICINE CO., LTD., priority 2018, published 2021).
Read-outs that look alike come from different tables or passages of the source. Square brackets hold non-standard residues; d marks the D form. Peptide text beside a SMILES is read from it. * marks the point of attachment. Gly(N-(2R-Ph-propyl)) = C[C@@H](CNCC(=O)O)c1ccccc1; Piperidin1yl(4-NH2,4-COOH) = NC1(C(=O)O)CCN(*)CC1

Columns and labels:
[1] = Solubility of the active ingredient (statement); assay type: physicochemical; conditions: free compound, background statement
[2] = Experimental: High performance liquid chromatography (HPLC) was determined on an Agilent 1200DAD high pressure liquid chromatograph (Sunfire C18 150×4.6 mm column) and Waters 2695-2996 high pressure liquid chromatograph (Gimini C18 150×4.6 mm column).
The study period was 20 days.

Compound | Solubility (in words) [1] | Purity % ([2]; 40° C., 5 days) | Purity % ([2]; 40° C., 10 days) | Purity % ([2]; 40° C., 20 days) | Purity % ([2]; 60° C., 5 days) | Purity % ([2]; 60° C., 10 days) | Purity % ([2]; 60° C., 20 days) | Purity % ([2]; 4500 Lux, 0 day (start value)) | Purity % ([2]; 4500 Lux, 5 days) | Purity % ([2]; 4500 Lux, 10 days) | Purity % ([2]; 4500 Lux, 20 days) | Stability of the salt (conclusion in words) ([2]; lighting, 40° C. and 60° C., 20 days)
CC(C)C[C@@H](NC(=O)[C@@H](Cc1ccccc1)NC(=O)CNC[C@H](C)c1ccccc1)C(=O)N[C@H](CCCCN)C(=O)N1CCC(N)(C(=O)O)CC1 [Compound A, 4-amino-N—[N^2—[N—[N—[N-((R)-2-phenylpropyl)glycyl]-D-phenylalanyl]-D-leucyl]-D-lysyl]piperidine-4-carboxylic acid] (H-[Gly(N-(2R-Ph-propyl))][dF][dL][dK]-{Piperidin1yl(4-NH2,4-COOH)}) | low solubility | – | – | – | – | – | – | – | – | – | – | –
CC(C)C[C@@H](NC(=O)[C@@H](Cc1ccccc1)NC(=O)CNC[C@H](C)c1ccccc1)C(=O)N[C@H](CCCCN)C(=O)N1CCC(N)(C(=O)O)CC1.Cl.Cl.Cl [Hydrochloride (1:3), 4-Amino-N—[N^2—[N—[N—[N-((R)-2-phenylpropyl)glycyl]-D-phenylalanyl]-D-leucyl]-D-lysyl]piperidine-4-carboxylic acid hydrochloride (1:3)] (H-[Gly(N-(2R-Ph-propyl))][dF][dL][dK]-{Piperidin1yl(4-NH2,4-COOH)}) | – | 96.54% | 96.42% | 96.41% | 96.42% | 96.43% | 96.41% | 96.50% | 95.57% | 94.27% | 94.24% | good stability
